# Where two headings read alike, the source gives them in different places.
# Legend:
# [1] = system: K. pneumonaie strain in clinical urine sample BIUR0084; assay: Automated MultiPath AST cartridge on clinical urine specimen, Example 8; assay type: cell-based; conditions: clinical urine BIUR0084 (K. pneumoniae), fold growth value of 2; for growth call at all antibiotic concentrations: 2 concentrations; for sensitive/resistant call by MulitPath: 4 h growth at 35° C., matched CLSI BMD
# [2] = system: E. coli; design: key: previously determined antibiotic resistance (shown with “X”); “IR” = Intrinsically resistant; conditions: cited from earlier work
# [3] = system: K. pneumoniae; design: key: previously determined antibiotic resistance (shown with “X”); “IR” = Intrinsically resistant; conditions: cited from earlier work
# [4] = system: K. oxytoca; design: key: previously determined antibiotic resistance (shown with “X”); “IR” = Intrinsically resistant; conditions: cited from earlier work
# [5] = system: P. mirabilis; design: key: previously determined antibiotic resistance (shown with “X”); “IR” = Intrinsically resistant; conditions: cited from earlier work
# [6] = system: P. aeruginosa; design: key: previously determined antibiotic resistance (shown with “X”); “IR” = Intrinsically resistant; conditions: cited from earlier work
# [7] = strain K. pneumoniae ATCC 13883
# [8] = strain P. aeruginosa ATCC 27853
Molecule,previously determined antibiotic resistance ([2]; strain E. coli ATCC 25922),"previously determined antibiotic resistance [3, 7]",previously determined antibiotic resistance ([3]; strain K. pneumoniae CDC0010),previously determined antibiotic resistance ([3]; strain K. pneumoniae CDC0016),previously determined antibiotic resistance ([3]; strain K. pneumoniae CDC0126),previously determined antibiotic resistance ([4]; strain K. oxytoca CDC0028),previously determined antibiotic resistance ([4]; strain K. oxytoca CDC0071),previously determined antibiotic resistance ([4]; strain K. oxytoca CDC0147),previously determined antibiotic resistance ([5]; strain P. mirabilis ATCC 7002),previously determined antibiotic resistance ([5]; strain P. mirabilis CDC0029),previously determined antibiotic resistance ([5]; strain P. mirabilis CDC0059),previously determined antibiotic resistance ([5]; strain P. mirabilis CDC0155),previously determined antibiotic resistance ([5]; strain P. mirabilis CDC0156),previously determined antibiotic resistance ([5]; strain P. mirabilis CDC0159),"previously determined antibiotic resistance [6, 8]",previously determined antibiotic resistance ([6]; strain P. aeruginosa CDC0105),previously determined antibiotic resistance ([6]; strain P. aeruginosa CDC0111),previously determined antibiotic resistance ([6]; strain P. aeruginosa CDC0242),previously determined antibiotic resistance ([6]; strain P. aeruginosa CDC0251),previously determined antibiotic resistance ([6]; strain P. aeruginosa CDC0253),further results
Cc1nnc(SCC2=C(C(=O)O)N3C(=O)[C@@H](NC(=O)Cn4cnnn4)[C@H]3SC2)s1 [Cefazolin],–,–,–,–,–,–,–,–,–,–,–,–,–,–,–,–,–,–,–,–,growth call at all antibiotic concentrations [1]: growth; sensitive/resistant call by MulitPath [1]: resistant
CC(C)(O/N=C(\C(=O)N[C@@H]1C(=O)N2C(C(=O)[O-])=C(C[n+]3ccccc3)CS[C@H]12)c1csc(N)n1)C(=O)O [Ceftazidime],X,X,X,X,X,X,X,X,X,X,X,X,X,X,X,X,X,X,X,X,previously determined antibiotic resistance ([2]; strain E. coli CDC0020): X; previously determined antibiotic resistance ([2]; strain E. coli CDC0067): X; previously determined antibiotic resistance ([2]; strain E. coli CDC0084): X; previously determined antibiotic resistance ([2]; strain E. coli CDC0086): X; previously determined antibiotic resistance ([2]; strain E. coli CDC0350): X; previously determined antibiotic resistance ([3]; strain K. pneumoniae CDC0041): X; previously determined antibiotic resistance ([3]; strain K. pneumoniae CDC0107): X; previously determined antibiotic resistance ([3]; strain K. pneumoniae CDC0160): X
O=C(O)c1cn(C2CC2)c2cc(N3CCNCC3)c(F)cc2c1=O [Ciprofloxacin],X,X,–,X,X,X,X,X,X,X,X,X,X,X,X,–,–,–,X,X,previously determined antibiotic resistance ([2]; strain E. coli BAA-2452): X; previously determined antibiotic resistance ([2]; strain E. coli BAA-2469): X; previously determined antibiotic resistance ([2]; strain E. coli BAA-2471): X; previously determined antibiotic resistance ([2]; strain E. coli CDC0017): X; previously determined antibiotic resistance ([2]; strain E. coli CDC0019): X; previously determined antibiotic resistance ([3]; strain K. pneumoniae CDC0034): X; previously determined antibiotic resistance ([3]; strain K. pneumoniae CDC0076): X; previously determined antibiotic resistance ([3]; strain K. pneumoniae CDC0117): X; previously determined antibiotic resistance ([6]; strain P. aeruginosa CDC0259): X; previously determined antibiotic resistance ([6]; strain P. aeruginosa CDC0261): X; previously determined antibiotic resistance ([6]; strain P. aeruginosa CDC0262): X
C[C@@H](O)[C@H]1C(=O)N2C(C(=O)O)=C(S[C@@H]3CN[C@H](C(=O)N(C)C)C3)[C@H](C)[C@H]12 [Meropenem],X,X,X,X,–,X,X,X,X,X,X,X,X,X,–,X,X,X,–,–,previously determined antibiotic resistance ([2]; strain E. coli CDC0001): X; previously determined antibiotic resistance ([2]; strain E. coli CDC0006): X; previously determined antibiotic resistance ([2]; strain E. coli CDC0020): X; previously determined antibiotic resistance ([2]; strain E. coli CDC0085): X; previously determined antibiotic resistance ([2]; strain E. coli CDC0114): X; previously determined antibiotic resistance ([3]; strain K. pneumoniae CDC0034): X; previously determined antibiotic resistance ([3]; strain K. pneumoniae CDC0043): X; previously determined antibiotic resistance ([3]; strain K. pneumoniae CDC0076): X; previously determined antibiotic resistance ([3]; strain K. pneumoniae CDC0080): X; previously determined antibiotic resistance ([6]; strain P. aeruginosa CDC0232): X; previously determined antibiotic resistance ([6]; strain P. aeruginosa CDC0247): X
Trimethoprim/Sulfamethoxazole,X,X,X,X,X,X,X,X,X,X,X,X,X,X,IR,IR,IR,IR,IR,IR,growth call at all antibiotic concentrations [1]: growth; sensitive/resistant call by MulitPath [1]: resistant; previously determined antibiotic resistance ([2]; strain E. coli BAA-2469): X; previously determined antibiotic resistance ([2]; strain E. coli BAA-2471): X; previously determined antibiotic resistance ([2]; strain E. coli CDC0017): X; previously determined antibiotic resistance ([2]; strain E. coli CDC0019): X; previously determined antibiotic resistance ([2]; strain E. coli CDC0084): X; previously determined antibiotic resistance ([3]; strain K. pneumoniae CDC0107): X; previously determined antibiotic resistance ([3]; strain K. pneumoniae CDC0117): X; previously determined antibiotic resistance ([6]; strain P. aeruginosa CDC0232): IR; previously determined antibiotic resistance ([6]; strain P. aeruginosa CDC0247): IR; previously determined antibiotic resistance ([6]; strain P. aeruginosa CDC0259): IR; previously determined antibiotic resistance ([6]; strain P. aeruginosa CDC0261): IR; previously determined antibiotic resistance ([6]; strain P. aeruginosa CDC0262): IR

# Reference: patent US12480944B2, “Detection and analysis of cells” (First Light Diagnostics, Inc., priority 2018, dated 2025)
